What was measured:
Assay type in all cases: in vivo, human
male subjects with T2DM = test: Eight week single-blind treatment study; responder defined by composite score of glycemic-lowering efficacy (FPG, fructosamine, HbA1c); settings: responder = composite % reduction 1(%ΔFPG)+2(%ΔFructosamine)+1.5(%ΔHbA1c) greater than 30%, 8 weeks
Text: The study described herein was relatively small-scale (75 male subjects with T2DM) and short-term (8 weeks of treatment). Serum and urine samples were obtained at pre-treatment baseline, and after 4 and 8 weeks of treatment with one of the following: placebo, rosiglitazone, metformin or glyburide. High information content nuclear magnetic resonance (NMR) and liquid chromatography/mass spectroscopy (LC/MS)-based metabolomic platforms, including polar metabolite and lipid profiling, were used to profile the serum and urine samples. A variety of multivariate analysis techniques were used to determine whether polar low molecular weight metabolites, lipids, or fatty acids, analyzed in readily accessible fluids can be used to predict drug responder status at week 8 based on their measurement at baseline or at week 4.
Male subjects aged 30 to 70 years with a documented history of stable T2DM for no more than 10 years duration were eligible for the study described herein if they had been previously treated with diet and exercise alone, monotherapy or low-dose combination therapy. Fasting plasma glucose (FPG) at screening could not exceed 225 mg/dL for subjects treated with diet and exercise alone or 180 mg/dL for subjects receiving monotherapy or low-dose combination therapy. HbA1c was required to be within 5.7 to 10.0% with the following conditions; subjects with HbA1c between 5.7 and 9% must have been diabetic for less than 5 years and treated with mono or low dose combination therapy and have a FBG of 125 to 180 mg/dL, and subjects with HbA1c between 9.1 and 10.0% must not have been treated with combination therapy. In addition, body mass index must have been within the range of 25 to 37.5 kg/m^2, for subjects aged […] years, or 25 to 35.0 kg/m^2 for subjects aged 56 to 70 years. […]
Originally, efficacy response was defined as a FPG decrease of greater than 30 mg/dl. […] Fructosamine, whose half-life is determined by that of albumin, provides a measure of integrated glucose over a period of 2-4 weeks. […]

urine citrate = test: Urine citrate measured by NMR at week 0 and week 8 in rosiglitazone responders and non-responders; settings: week 8 vs week 0
Experimental: FIGS. 4A-4C show the measure of selected biomarkers in urine or serum.
Male subjects aged 30 to 70 years with a documented history of stable T2DM for no more than 10 years duration were eligible for the study described herein if they had been previously treated with diet and exercise alone, monotherapy or low-dose combination therapy. Fasting plasma glucose (FPG) at screening could not exceed 225 mg/dL for subjects treated with diet and exercise alone or 180 mg/dL for subjects receiving monotherapy or low-dose combination therapy. […]
Serum and urine samples were analyzed using various metabolomic platforms and with traditional serum biomarker (“non-omic”) measurements. Both urine and serum were measured by nuclear magnetic resonance (NMR)-based metabolic profiling. Serum samples were also analyzed by liquid chromatograph (LC)/mass spectrometry (MS) for polar metabolites and lipids, and gas chromatograph (GC)-flame ionization for fatty acids (lipidomics). […]
Citrate may play a critical role in cataplerosis (the export of mitochondrial intermediates into the cytosol and in the induction of fatty acid-derived signaling molecules) and glucose-regulated insulin release [Flamez, D. et al., Diabetes 51, 2018-2024 (2002)]. Because citrate was not quantified in plasma or liver, it is hard to pinpoint the actual biochemical context for the change in this metabolite. […]

[1] = test system: inflammation associated with obesity and diabetes; test: Apparent inflammation observed in the study under rosiglitazone treatment; settings: observed in this study and also reported in the literature
Text: Serum IL-8 at baseline was higher in responders than non-responders (p=0.032) (FIG. 4C). IL-8 is an important cytokine in the inflammatory process. It is stimulated by high glucose concentrations in endothelial cells in vitro and has chemotactic activity for polymorphonuclear neutrophils (playing an important role in the pathogenesis of chronic complications of diabetes), as well as for T-lymphocyte and smooth muscle cells. Serum IL-8 level was reported to markedly increase in diabetic patients [Zozulinska, D., et al., Diabetologia 42, 117-118 (1999)]. […] Thus, it seems consistent that subjects with higher IL-8 levels were more responsive to rosiglitazone treatment.

## COc1ccc(Cl)cc1C(=O)NCCc1ccc(S(=O)(=O)NC(=O)NC2CCCCC2)cc1 [Glyburide, 5-chloro-N-[2-[4-(cyclohexylcarbamoylsulfamoyl)phenyl]ethyl]-2-methoxy-benzamide]
Male subjects with T2DM
  Fractions of responders in each treatment after eight weeks of treatment: 0.60

## CN(C)C(=N)N=C(N)N [Metformin]
Male subjects with T2DM
  Fractions of responders in each treatment after eight weeks of treatment: 0.53

## CN(CCOc1ccc(CC2SC(=O)NC2=O)cc1)c1ccccn1 (stereo not drawn) [Rosiglitazone, 5-[[4-[2-(methyl-pyridin-2-yl-amino)ethoxy]phenyl]methyl]thiazolidine-2,4-dione]
Male subjects with T2DM
  Fractions of responders in each treatment after eight weeks of treatment: 0.43
Urine citrate; non-responders (n=12)
  change in level of urine citrate after 8 week treatment, non-responder subjects: did not change
Urine citrate; responders (n=9)
  change in level of urine citrate after 8 week treatment, responder group: did increase urine citrate (not statistically significant)
[1]
  effect of treatment on apparent inflammation: reduce apparent inflammation

Source: patent publication US20100273661A1, “Methods and Kits for Predicting Treatment Response in Type II Diabetes Mellitus Patients” (SmithKline Beecham Corporation, priority 2007, published 2010)
